Assay results: ChEMBL document CHEMBL1125036, “Antitumor properties of tetrahydrobenz[a]anthraquinone derivatives” (1990)

Key:
L1210 = test: Anticancer activity against murine leukemia L1210 cells; type: functional, Mus musculus
A121 = test: Anticancer activity against human ovarian carcinoma A121 cells; type: functional
MCF7 = test: Anticancer activity against human breast carcinoma MCF-7 cells; type: functional
WiDr = test: Anticancer activity against human colon carcinoma WiDr cells; type: functional
NCI-H125 = test: Anticancer activity against human nonsmall cell lung carcinoma (H125 cells); type: functional

COc1cc2c(c3c1C(=O)c1c(NCCNCCO)ccc(NCCNCCO)c1C3=O)CCCC2
Activity (L1210): 2 µM | Activity (A121): 100 nM | Activity (MCF7): 1000 nM | Activity (WiDr): 960 nM | Activity (NCI-H125): 220 nM
